In ChEMBL document CHEMBL5346907, “Discovery of a novel oral type Ⅰ CDK8 inhibitor against acute myeloid leukemia” (Eur J Med Chem, 2023):

What was measured:
[1] = biological target: CDK8/Cyclin C (Homo sapiens) (UniProt P49336+P24863); experiment: Inhibition of CDK8/Cyclin C (unknown origin) at 1 uM preincubated for 10 mins followed by substrate addition measured for 60 to 120 mins by HTRF assay relative to control; type: protein-complex assay; conditions: time 70-130 min
[2] = biological target: CDK7/Cyclin H/MNAT1 (Homo sapiens) (UniProt P51946+P50613+P51948); experiment: Inhibition of CDK7/Cyclin H/MAT1 (unknown origin) at 1 uM preincubated for 10 mins followed by substrate addition measured for 60 to 120 mins by HTRF assay relative to control; type: protein-complex assay; conditions: time 70-130 min
[3] = biological target: Cyclin-Y/Cyclin-dependent kinase 16 (Homo sapiens) (UniProt Q00536+Q8ND76); experiment: Inhibition of CDK16/CyclinY (unknown origin) at 1 uM preincubated for 10 mins followed by substrate addition measured for 60 to 120 mins by HTRF assay relative to control; type: protein-complex assay; conditions: time 70-130 min
[4] = biological target: CDK3/Cyclin E (Homo sapiens) (UniProt P24864+Q00526); experiment: Inhibition of CDK3/CyclinE1 (unknown origin) at 1 uM preincubated for 10 mins followed by substrate addition measured for 60 to 120 mins by HTRF assay relative to control; type: protein-complex assay; conditions: time 70-130 min
[5] = biological target: CDK12/Cyclin K (Homo sapiens) (UniProt O75909+Q9NYV4); experiment: Inhibition of CDK12/Cyclin K (unknown origin) at 1 uM preincubated for 10 mins followed by substrate addition measured for 60 to 120 mins by HTRF assay relative to control; type: protein-complex assay; conditions: time 70-130 min
[6] = biological target: Cyclin-dependent kinase 2/cyclin E1 (Homo sapiens, UniProt P24941); experiment: Inhibition of CDK2/Cyclin E1 (unknown origin) preincubated for 10 mins followed by substrate addition measured for 60 to 120 mins by HTRF assay; type: protein-complex assay
CDK6/cyclin D1 = CDK6/cyclin D1 (Homo sapiens, UniProt Q00534); experiment: Inhibition of CDK6/Cyclin D1 (unknown origin) preincubated for 10 mins followed by substrate addition measured for 60 to 120 mins by HTRF assay; type: protein-complex assay
[7] = biological target: Tyrosine-protein kinase JAK1 (Homo sapiens) (UniProt P23458); experiment: Inhibition of JAK1 (unknown origin) at 1 uM preincubated for 10 mins followed by substrate addition measured for 60 to 120 mins by HTRF assay relative to control; conditions: time 70-130 min
[8] = biological target: Activated CDC42 kinase 1 (Homo sapiens) (UniProt Q07912); experiment: Inhibition of ACK (unknown origin) at 1 uM preincubated for 10 mins followed by substrate addition measured for 60 to 120 mins by HTRF assay relative to control; conditions: time 70-130 min
Activated CDC42 kinase 1 (Homo sapiens), sequence (Q07912 whole entry, looked up): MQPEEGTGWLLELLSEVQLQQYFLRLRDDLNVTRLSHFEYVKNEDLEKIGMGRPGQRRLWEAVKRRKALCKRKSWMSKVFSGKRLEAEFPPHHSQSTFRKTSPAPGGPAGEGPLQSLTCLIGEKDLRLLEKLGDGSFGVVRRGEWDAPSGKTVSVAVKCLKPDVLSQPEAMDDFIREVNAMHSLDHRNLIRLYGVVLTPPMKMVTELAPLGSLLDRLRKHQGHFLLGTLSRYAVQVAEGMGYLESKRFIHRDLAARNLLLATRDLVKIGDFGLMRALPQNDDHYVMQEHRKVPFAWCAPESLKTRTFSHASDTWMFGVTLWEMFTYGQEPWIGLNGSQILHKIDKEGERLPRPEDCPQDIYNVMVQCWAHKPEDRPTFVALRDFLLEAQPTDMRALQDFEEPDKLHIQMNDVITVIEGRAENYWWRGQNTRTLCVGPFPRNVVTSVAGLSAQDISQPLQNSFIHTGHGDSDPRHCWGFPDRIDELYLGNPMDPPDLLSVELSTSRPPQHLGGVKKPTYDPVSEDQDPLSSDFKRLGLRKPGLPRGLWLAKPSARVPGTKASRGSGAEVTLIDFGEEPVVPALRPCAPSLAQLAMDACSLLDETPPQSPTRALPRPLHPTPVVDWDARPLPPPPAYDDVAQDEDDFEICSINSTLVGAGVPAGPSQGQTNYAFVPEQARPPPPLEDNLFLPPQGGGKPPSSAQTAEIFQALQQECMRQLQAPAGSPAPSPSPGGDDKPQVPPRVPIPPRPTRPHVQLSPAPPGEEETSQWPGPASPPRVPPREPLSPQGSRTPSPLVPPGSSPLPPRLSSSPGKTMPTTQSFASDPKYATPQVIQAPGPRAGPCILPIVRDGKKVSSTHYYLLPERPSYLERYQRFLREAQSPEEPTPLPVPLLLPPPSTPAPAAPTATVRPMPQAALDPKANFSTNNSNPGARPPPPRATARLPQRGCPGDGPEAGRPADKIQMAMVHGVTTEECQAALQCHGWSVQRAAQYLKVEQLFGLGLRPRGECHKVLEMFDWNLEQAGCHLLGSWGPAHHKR

[9] = biological target: Protein-tyrosine kinase 6 (Homo sapiens) (UniProt Q13882); experiment: Inhibition of BRK (unknown origin) at 1 uM preincubated for 10 mins followed by substrate addition measured for 60 to 120 mins by HTRF assay relative to control; conditions: time 70-130 min
Protein-tyrosine kinase 6 (Homo sapiens), sequence (Q13882 whole entry, looked up): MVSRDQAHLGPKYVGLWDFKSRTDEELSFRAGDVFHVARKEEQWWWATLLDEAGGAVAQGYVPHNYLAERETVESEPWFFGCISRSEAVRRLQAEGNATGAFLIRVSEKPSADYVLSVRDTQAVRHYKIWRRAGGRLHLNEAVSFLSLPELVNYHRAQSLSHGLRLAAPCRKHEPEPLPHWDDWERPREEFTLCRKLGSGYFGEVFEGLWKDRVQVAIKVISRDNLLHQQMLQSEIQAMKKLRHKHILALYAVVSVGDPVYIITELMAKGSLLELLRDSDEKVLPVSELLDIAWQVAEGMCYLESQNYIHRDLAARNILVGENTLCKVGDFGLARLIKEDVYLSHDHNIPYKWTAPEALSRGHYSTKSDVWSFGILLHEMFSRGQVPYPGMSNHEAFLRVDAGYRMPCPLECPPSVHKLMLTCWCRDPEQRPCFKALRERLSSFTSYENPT

[10] = biological target: Tyrosine-protein kinase receptor TYRO3 (Homo sapiens) (UniProt Q06418); experiment: Inhibition of TYRO3 (unknown origin) at 1 uM preincubated for 10 mins followed by substrate addition measured for 60 to 120 mins by HTRF assay relative to control; conditions: time 70-130 min
Tyrosine-protein kinase receptor TYRO3 (Homo sapiens), sequence (Q06418 whole entry): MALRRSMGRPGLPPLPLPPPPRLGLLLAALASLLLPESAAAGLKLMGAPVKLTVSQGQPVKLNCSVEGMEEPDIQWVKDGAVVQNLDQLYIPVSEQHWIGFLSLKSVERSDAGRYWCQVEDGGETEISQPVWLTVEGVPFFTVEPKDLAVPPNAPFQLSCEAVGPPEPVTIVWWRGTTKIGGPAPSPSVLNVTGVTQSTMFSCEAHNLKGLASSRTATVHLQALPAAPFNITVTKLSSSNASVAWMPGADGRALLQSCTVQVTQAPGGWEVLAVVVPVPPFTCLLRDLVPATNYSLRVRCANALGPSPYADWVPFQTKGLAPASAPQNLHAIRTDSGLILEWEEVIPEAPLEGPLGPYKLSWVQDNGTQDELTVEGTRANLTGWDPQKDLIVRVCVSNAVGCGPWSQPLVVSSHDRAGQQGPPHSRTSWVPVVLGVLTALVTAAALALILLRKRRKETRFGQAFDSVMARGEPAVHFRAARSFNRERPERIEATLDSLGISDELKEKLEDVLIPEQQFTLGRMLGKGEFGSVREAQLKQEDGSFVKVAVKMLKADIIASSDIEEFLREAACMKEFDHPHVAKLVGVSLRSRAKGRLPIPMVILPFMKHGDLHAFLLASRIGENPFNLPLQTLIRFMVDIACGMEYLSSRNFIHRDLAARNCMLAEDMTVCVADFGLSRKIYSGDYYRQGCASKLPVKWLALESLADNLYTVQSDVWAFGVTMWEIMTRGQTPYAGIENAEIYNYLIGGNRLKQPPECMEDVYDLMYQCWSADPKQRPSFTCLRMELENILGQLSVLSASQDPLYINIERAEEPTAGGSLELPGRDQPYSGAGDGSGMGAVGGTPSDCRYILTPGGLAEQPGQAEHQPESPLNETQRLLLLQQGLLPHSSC

[11] = biological target: Focal adhesion kinase 1 (Homo sapiens) (UniProt Q05397); experiment: Inhibition of FAK (unknown origin) at 1 uM preincubated for 10 mins followed by substrate addition measured for 60 to 120 mins by HTRF assay relative to control; conditions: time 70-130 min
Focal adhesion kinase 1 (Homo sapiens), sequence (Q05397 2-1052 limits assumed): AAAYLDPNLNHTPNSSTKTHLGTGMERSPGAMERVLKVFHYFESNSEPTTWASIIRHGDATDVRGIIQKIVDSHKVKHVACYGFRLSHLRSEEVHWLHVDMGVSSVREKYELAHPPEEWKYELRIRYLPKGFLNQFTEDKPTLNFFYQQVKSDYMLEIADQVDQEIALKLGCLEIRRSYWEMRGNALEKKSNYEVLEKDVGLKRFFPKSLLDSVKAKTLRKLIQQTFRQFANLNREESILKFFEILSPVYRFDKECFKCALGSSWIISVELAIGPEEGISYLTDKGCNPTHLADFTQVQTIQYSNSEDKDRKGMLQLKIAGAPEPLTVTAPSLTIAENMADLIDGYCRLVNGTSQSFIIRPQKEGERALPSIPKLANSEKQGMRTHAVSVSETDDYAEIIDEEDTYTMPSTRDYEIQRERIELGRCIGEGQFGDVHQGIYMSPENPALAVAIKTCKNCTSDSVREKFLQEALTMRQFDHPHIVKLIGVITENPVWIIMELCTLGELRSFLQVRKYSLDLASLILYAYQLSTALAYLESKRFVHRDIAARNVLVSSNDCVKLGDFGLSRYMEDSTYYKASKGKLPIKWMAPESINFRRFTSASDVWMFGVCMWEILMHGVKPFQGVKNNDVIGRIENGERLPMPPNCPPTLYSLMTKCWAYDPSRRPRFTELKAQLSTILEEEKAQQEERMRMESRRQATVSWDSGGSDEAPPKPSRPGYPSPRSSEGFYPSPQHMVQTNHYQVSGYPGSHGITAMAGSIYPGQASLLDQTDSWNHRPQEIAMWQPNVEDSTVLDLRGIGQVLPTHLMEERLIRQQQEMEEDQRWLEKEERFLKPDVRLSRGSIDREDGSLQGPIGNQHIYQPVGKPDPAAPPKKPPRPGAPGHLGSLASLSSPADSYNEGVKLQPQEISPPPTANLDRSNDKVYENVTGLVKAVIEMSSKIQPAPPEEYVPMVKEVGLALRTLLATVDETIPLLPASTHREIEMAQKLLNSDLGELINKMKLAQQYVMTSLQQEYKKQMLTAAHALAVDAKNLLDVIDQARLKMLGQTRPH

[12] = biological target: Tyrosine-protein kinase BTK (Homo sapiens) (UniProt Q06187); experiment: Inhibition of BTK (unknown origin) at 1 uM preincubated for 10 mins followed by substrate addition measured for 60 to 120 mins by HTRF assay relative to control; conditions: time 70-130 min
Tyrosine-protein kinase BTK (Homo sapiens), sequence (Q06187 whole entry): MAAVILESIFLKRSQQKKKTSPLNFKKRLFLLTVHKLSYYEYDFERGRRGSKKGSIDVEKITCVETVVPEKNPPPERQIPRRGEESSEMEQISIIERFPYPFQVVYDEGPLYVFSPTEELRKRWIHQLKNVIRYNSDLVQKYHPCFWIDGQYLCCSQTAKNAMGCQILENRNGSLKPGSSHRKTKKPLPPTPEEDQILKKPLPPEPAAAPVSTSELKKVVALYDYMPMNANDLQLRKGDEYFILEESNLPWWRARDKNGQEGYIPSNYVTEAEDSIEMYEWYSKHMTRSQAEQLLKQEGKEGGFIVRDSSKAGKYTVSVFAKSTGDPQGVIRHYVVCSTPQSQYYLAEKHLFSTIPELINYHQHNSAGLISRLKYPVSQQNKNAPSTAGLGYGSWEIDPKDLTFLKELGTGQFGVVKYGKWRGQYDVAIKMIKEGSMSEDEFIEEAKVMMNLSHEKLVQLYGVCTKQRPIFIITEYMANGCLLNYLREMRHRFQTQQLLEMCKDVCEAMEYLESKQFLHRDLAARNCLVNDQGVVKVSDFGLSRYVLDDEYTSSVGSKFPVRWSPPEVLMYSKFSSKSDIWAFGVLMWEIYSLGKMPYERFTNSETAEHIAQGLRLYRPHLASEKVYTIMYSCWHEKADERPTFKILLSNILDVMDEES

[13] = biological target: Macrophage-stimulating protein receptor (Homo sapiens) (UniProt Q04912); experiment: Inhibition of RON (unknown origin) at 1 uM preincubated for 10 mins followed by substrate addition measured for 60 to 120 mins by HTRF assay relative to control; conditions: time 70-130 min
[14] = biological target: Ephrin type-B receptor 2 (Homo sapiens) (UniProt P29323); experiment: Inhibition of EPHB2 (unknown origin) at 1 uM preincubated for 10 mins followed by substrate addition measured for 60 to 120 mins by HTRF assay relative to control; conditions: time 70-130 min
[15] = biological target: Tyrosine-protein kinase ZAP-70 (Homo sapiens) (UniProt P43403); experiment: Inhibition of ZAP70 (unknown origin) at 1 uM preincubated for 10 mins followed by substrate addition measured for 60 to 120 mins by HTRF assay relative to control; conditions: time 70-130 min
[16] = biological target: Receptor tyrosine-protein kinase erbB-4 (Homo sapiens) (UniProt Q15303); experiment: Inhibition of HER4 (unknown origin) at 1 uM preincubated for 10 mins followed by substrate addition measured for 60 to 120 mins by HTRF assay relative to control; conditions: time 70-130 min
[17] = biological target: Ephrin type-A receptor 7 (Homo sapiens) (UniProt Q15375); experiment: Inhibition of EPHA7 (unknown origin) at 1 uM preincubated for 10 mins followed by substrate addition measured for 60 to 120 mins by HTRF assay relative to control; conditions: time 70-130 min
[18] = biological target: Tyrosine-protein kinase ITK/TSK (Homo sapiens) (UniProt Q08881); experiment: Inhibition of ITK (unknown origin) at 1 uM preincubated for 10 mins followed by substrate addition measured for 60 to 120 mins by HTRF assay relative to control; conditions: time 70-130 min
Tyrosine-protein kinase ITK/TSK (Homo sapiens), sequence (Q08881 whole entry): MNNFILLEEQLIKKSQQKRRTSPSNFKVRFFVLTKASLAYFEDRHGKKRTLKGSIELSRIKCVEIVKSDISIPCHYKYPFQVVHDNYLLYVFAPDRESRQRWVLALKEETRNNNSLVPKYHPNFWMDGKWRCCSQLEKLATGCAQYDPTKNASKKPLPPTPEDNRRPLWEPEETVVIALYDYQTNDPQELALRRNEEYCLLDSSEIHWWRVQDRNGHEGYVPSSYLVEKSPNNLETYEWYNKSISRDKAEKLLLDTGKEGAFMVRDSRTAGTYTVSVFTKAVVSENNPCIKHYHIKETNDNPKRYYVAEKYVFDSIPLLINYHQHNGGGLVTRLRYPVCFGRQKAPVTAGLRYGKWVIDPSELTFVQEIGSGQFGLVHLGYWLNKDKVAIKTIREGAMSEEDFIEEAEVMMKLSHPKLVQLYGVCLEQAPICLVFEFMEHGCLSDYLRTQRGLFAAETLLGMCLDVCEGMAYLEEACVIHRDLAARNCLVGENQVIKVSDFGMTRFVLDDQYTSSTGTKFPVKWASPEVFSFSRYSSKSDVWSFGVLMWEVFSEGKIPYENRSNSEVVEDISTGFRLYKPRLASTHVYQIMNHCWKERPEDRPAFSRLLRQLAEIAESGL

[19] = biological target: Cyclin-dependent kinase 8 (Homo sapiens, UniProt P49336); experiment: Binding affinity to CDK8 in human HCT-116 cells assessed as increase in degradation temperature of protein at 5 uM incubated for 6 hrs followed by heating for 4 mins by CETSA assay (reference value: 55 degreeC); type: cell-based; conditions: time 6.06 hrs
HL-60 [20] = experiment: Induction of apoptosis in human HL-60 cells assessed as late apoptotic cells at 1 uM incubated for 48 hrs by annexin V-FITC/PI staining based flow cytometry (reference value: 1.07 %); type: functional
HL-60 [21] = experiment: Induction of apoptosis in human HL-60 cells assessed as viable cells at 5 uM incubated for 48 hrs by annexin V-FITC/PI staining based flow cytometry (reference value: 96.5 %); type: functional; conditions: read-out: Activity
[22] = Half life in Sprague-Dawley rat at 10 mg/kg, po; type: ADME, organism-based; conditions: in vivo
[23] = AUC (0 to infinity) in Sprague-Dawley rat at 2 mg/kg, iv; type: ADME, organism-based; set-up: dose 2 mg/kg, route iv; conditions: in vivo
[24] = Clearance in Sprague-Dawley rat at 2 mg/kg, iv; type: ADME, organism-based; conditions: in vivo
[25] = Acute toxicity in C57BL/6 mouse assessed as histopathological change in liver at 2000 mg/kg, IG measured for 14 days by H&E staining based analysis; type: organism-based; conditions: in vivo, po, 336 h, time 14 day
[26] = Acute toxicity in C57BL/6 mouse assessed as histopathological change in spleen at 2000 mg/kg, IG measured for 14 days by H&E staining based analysis; type: organism-based; conditions: in vivo, po, 336 h, time 14 day
C1498 [27] = experiment: Antitumor activity against mouse C1498 cells allografted in AML Balb/C mouse model assessed as decrease in Ki67 expression administered orally daily for 15 days measured after 3 weeks by IHC analysis; type: functional, cell-based; conditions: dose 40-80 mg/kg, route po, time 15.0 day
C1498 [28] = experiment: Downregulation of STAT5 S726 expression in mouse C1498 cells allografted in AML Balb/C mouse model administered orally daily for 15 days measured after 3 weeks by Western blot analysis; type: functional, cell-based; conditions: dose 40-80 mg/kg, route po, time 15.0 day

With `NC(=O)c1cccc(-c2cnc3[nH]ccc3c2)c1` the inhibition [1] was 38.9%, the inhibition [2] was 18.9% and the inhibition [3] was 16.6%. It also gave an inhibition [4] of 1.34%, an inhibition [5] of 0.16% and an IC50 [6] of over 1000 nM. For the same compound, the IC50 (CDK6/cyclin D1) was 594 nM, the inhibition [7] was 31.5% and the inhibition [8] was 21.6%. For the same compound, the inhibition [9] was 12.7%, the inhibition [10] was 7% and the inhibition [11] was 6.16%. The inhibition [12] was 5.27%, the inhibition [13] was 0.43% and the inhibition [14] was 0%. For the same compound, the inhibition [15] was 0%, the inhibition [16] was 0% and the inhibition [17] was 0%. The inhibition [18] was 0%, the T [19] was 61 °C and the Activity (HL-60 [20]) was 38%. The viability at 5 µM (HL-60 [21]) was 9.73%, the half-life [22] was 1.4 h and the AUC(0-inf) [23] was 310 ng·h/mL. For the same compound, the clearance [24] was 118 mL/min/kg, the Activity [25] was “Non-Toxic” and the Activity [26] was “Non-Toxic”. The Activity (C1498 [27]) was “Dose-Dependent Effect” and the Activity (C1498 [28]) was “Dose-Dependent Effect”.
